Source: patent publication US4439436A, “1,3-Dioxolo(4,5-G)quinoline compounds” (Sterling Drug Inc., priority 1982, dated 1984)
≈ marks a conversion by molar mass, not a printed value. Where two headings read alike, the source gives them in different places. Each block holds one compound with its values, some of them ahead of it.

How the values were obtained:
Escherichia coli Vogel [1] = test: in vitro antibacterial activity, serial dilution (MIC); format: cell-based
Protocol: (§1) The in vitro antibacterial activity was determined by conventional serial dilution procedures. Bacterial cultures were grown in tryptose phosphate broth or brain heart infusion broth (containing heat-inactivated normal horse serum for tests with S. pyogenes) overnight at 37° C. and subsequently diluted in double strength broth to provide bacterial inocula of about 2×10^5 cells/ml. Aqueous solutions of the compounds of the invention were prepared by dissolving the free acid form in 0.5 N sodium hydroxide. The solutions were diluted with sterile distilled water to 100 mcg/ml of compound in terms of the free acid. Serial two-fold dilutions of the compound stock solutions were prepared in water and 0.5 ml of each dilution was transferred to sets of tubes, one set for each bacterial inoculum. Each tube was then inoculated with 0.5 ml of the appropriate culture, resulting in a final bacterial concentration of about 1×10^5 cells/ml. The minimal inhibitory concentration (MIC), defined as the lowest concentration of the test compound to inhibit visible bacterial growth, was recorded after 18-20 hours of static incubation at 37° C.

Proteus vulgaris 9920 = test: as above; format: cell-based
Protocol: as §1

Proteus mirabilis MGH-1 = test: as above; format: cell-based; settings: MGH1
Protocol: as §1

Escherichia coli Vogel [2] = test: in vivo antibacterial activity in mice infected with E. coli; parameters: species or system female mice; settings: sc, 168 h
Protocol: (§2) The in vivo antibacterial activity of the compounds of the invention was determined in female mice, 18-20 grams each, by the following procedure:
(§3) Aqueous solutions of the compounds to be tested were prepared by dissolving the free acid form in dilute sodium hydroxide and diluting the solution with distilled water to the desired volume.
(§4) Cultures of Escherichia coli Vogel prepared in brain heart infusion broth, cultures of Klebsiella pneumoniae 39645 grown in tryptose phosphate broth with 5% rabbit serum diluted in the same broth were used to infect the mice as follows:
E coli: mice were inoculated intraperitoneally with 0.5 ml of the bacterial test inoculum (1.87×10^7 and 5×10^6 cells/ml respectively).
Mice infected with E. coli were medicated once (0.5 ml) one-half hour post infection, the test compound being administered by the subcutaneous (s.c.) route. Deaths were recorded daily for seven days.
(§5) Groups of ten animals each for four or five dose levels were thus treated and the number of survivors in each group recorded. The fifty percent protective dose values (PD50) were then calculated.

[3] = test system: Klebsiella pneumoniae 39645; test: in vitro antibacterial activity, serial dilution (MIC); format: cell-based
Protocol: as §1

[4] = test system: Klebsiella pneumoniae 39645; test: in vivo antibacterial activity in mice infected with K. pneumoniae; parameters: species or system female mice; settings: Klebsiella pneumoniae, 39645, sc, 336 h; K. pneumoniae intramuscularly; s.c. 17 h and 1 h preinfection, 6 h postinfection, twice a day next three days; fourteen days; read-out: Protective Dose (PD50)
Protocol: as §2, §3, §4
K. pneumoniae: mice were inoculated intramuscularly in the right hind leg with 0.2 ml of the bacterial test inoculum (2.05×10^4 cells/ml).
Mice infected with K. pneumoniae were medicated at the following times: seventeen hours and one hour preinfection, six hours postinfection and twice a day for the next three days. The test compound was administered by the subcutaneous (0.2 ml) route. Deaths were recorded daily for fourteen days.
as §5

[5] = test system: Streptococcus pyogenes C203; test: in vitro antibacterial activity, serial dilution (MIC); format: cell-based; settings: broth with heat-inactivated normal horse serum, 18-20 hours, 37° C., read-out: Minimal Inhibitory Concentration
Protocol: as §1

[6] = test system: Pseudomonas aeruginosa MGH-2; test: as above; format: cell-based; settings: MGH2, 18-20 hours, 37° C., about 1×10^5 cells/ml, read-out: Minimal Inhibitory Concentration
Protocol: as §1

[7] = test system: Staphylococcus aureus Smith; test: as above; format: cell-based; settings: 18-20 hours, 37° C., about 1×10^5 cells/ml, read-out: Minimal Inhibitory Concentration
Protocol: as §1

[8] = Escherichia coli, E. coli, in vitro, read-out: MIC
[9] = Proteus vulgaris, 9920, P. vulg., in vitro, read-out: MIC
[10] = Proteus mirabilis, P. mirab., in vitro, read-out: MIC
[11] = E. coli intraperitoneally, single s.c. dose one-half hour post infection, seven days, read-out: Protective Dose (PD50)
[12] = Escherichia coli Vogel, 18-20 hours, 37° C., about 1×10^5 cells/ml, read-out: Minimal Inhibitory Concentration
[13] = Proteus vulgaris 9920, 18-20 hours, 37° C., about 1×10^5 cells/ml, read-out: Minimal Inhibitory Concentration
[14] = Proteus mirabilis MGH-1, 18-20 hours, 37° C., about 1×10^5 cells/ml, read-out: Minimal Inhibitory Concentration
[15] = Klebsiella pneumoniae 39645, 18-20 hours, 37° C., about 1×10^5 cells/ml, read-out: Minimal Inhibitory Concentration

- MIC (Escherichia coli Vogel [1]; [8]): 7.8 µg/mL (≈ 31.4 µM)
- MIC (Proteus vulgaris 9920; [9]): 3.9 µg/mL (≈ 15.7 µM)
- MIC (Proteus mirabilis MGH-1; [10]): 3.9 µg/mL (≈ 15.7 µM)
Compound: Nn1cc(C(=O)O)c(=O)c2cc3c(cc21)OCO3 [Example 2, 5-Amino-5,8-dihydro-8-oxo-1,3-dioxolo[4,5-g]quinoline-7-carboxylic acid]

Compound: CN(C=O)n1cc(C(=O)O)c(=O)c2cc3c(cc21)OCO3 [Example 7, 5-[(Formyl)methylamino]5,8-dihydro-8-oxo-1,3-dioxolo[4,5-g]-quinoline-7-carboxylic acid]
- ED50 (Escherichia coli Vogel [2]; in vivo against E. coli, read-out: PD50): 40 mg/kg
- MIC (Escherichia coli Vogel [1]; [8]): 31.3 µg/mL (≈ 108 µM)
- MIC (Proteus vulgaris 9920; [9]): 15.6 µg/mL (≈ 53.8 µM)
- MIC (Proteus mirabilis MGH-1; [10]): 7.8 µg/mL (≈ 26.9 µM)
- MIC ([3]; Klebsiella pneumoniae, 39645, K. pneum., in vitro, read-out: MIC): 15.6 µg/mL (≈ 53.8 µM)

Compound: CNn1cc(C(=O)O)c(=O)c2cc3c(cc21)OCO3 [Example 9, 5,8-Dihydro-5-(methylamino)-8-oxo-1,3-dioxolo[4,5-g]quinoline-7-carboxylic acid]
- ED50 [4]: 28 mg/kg
- ED50 (Escherichia coli Vogel [2]; [11]): 3.3 mg/kg
- MIC [5]: > 500 µg/mL
- MIC (Escherichia coli Vogel [1]; [12]): 0.25 µg/mL (≈ 0.953 µM)
- MIC (Proteus vulgaris 9920; [13]): 0.125 µg/mL (≈ 0.477 µM)
- MIC [6]: 15.6 µg/mL (≈ 59.5 µM)
- MIC (Proteus mirabilis MGH-1; [14]): 0.25 µg/mL (≈ 0.953 µM)
- MIC [7]: 3.9 µg/mL (≈ 14.9 µM)
- MIC [3, 15]: 1 µg/mL (≈ 3.81 µM)

Compound: CCNn1cc(C(=O)O)c(=O)c2cc3c(cc21)OCO3 [Example 12, 5-(Ethylamino)-5,8-dihydro-8-oxo-1,3-dioxolo[4,5-g]quinoline-7-carboxylic acid]
- ED50 [4]: 50 mg/kg
- ED50 (Escherichia coli Vogel [2]; [11]): 7 mg/kg
- MIC [5]: > 62.5 µg/mL
- MIC (Escherichia coli Vogel [1]; [12]): 1 µg/mL (≈ 3.62 µM)
- MIC (Proteus vulgaris 9920; [13]): 0.25 µg/mL (≈ 0.905 µM)
- MIC [6]: > 62.5 µg/mL
- MIC (Proteus mirabilis MGH-1; [14]): 1.95 µg/mL (≈ 7.06 µM)
- MIC [7]: > 15.6 µg/mL
- MIC [3, 15]: 1.95 µg/mL (≈ 7.06 µM)

Compound: CCCNn1cc(C(=O)O)c(=O)c2cc3c(cc21)OCO3 [Example 14, 5,8-Dihydro-8-oxo-5-(propylamino)-1,3-dioxolo[4,5-g]quinoline-7-carboxylic acid]
- ED50 [4]: > 200 mg/kg
- ED50 (Escherichia coli Vogel [2]; [11]): 141 mg/kg
- MIC [5]: > 62.5 µg/mL
- MIC (Escherichia coli Vogel [1]; [12]): > 7.8 µg/mL
- MIC (Proteus vulgaris 9920; [13]): 3.9 µg/mL (≈ 13.4 µM)
- MIC [6]: > 62.5 µg/mL
- MIC (Proteus mirabilis MGH-1; [14]): > 7.8 µg/mL
- MIC [7]: > 62.5 µg/mL
- MIC [3, 15]: > 7.8 µg/mL
